Test results: ChEMBL document CHEMBL4699602, “Stapled and Xenopus Glucagon-Like Peptide 1 (GLP-1)-Based Dual GLP-1/Gastrin Receptor Agonists with Improved Metabolic Benefits in Rodent Models of Obesity and Diabetes” (J Med Chem, 2020)
pEC50: −log10 of the molar value. Calls of active or inactive are those of the source. The calls are words filed in the database; no cut-off is given here. *1 amine or outer side, *2 acyl side, *3 side chain or, on linkers, in order; H or OH if unused. Bridges are numbered along the chain shown (N, C = ends). [ ]: non-standard residue; d: D form. X1 = CCCCCCCCCCCCCCCC(=O)NCCCCCCNC(=O)C(CCCCNC(=O)CCN1C(=O)CC([*:1])C1=O)NC(=O)CCN1C(=O)CC([*:2])C1=O; AEEA = NCCOCCOCC(=O)O; Aib = CC(C)(N)C(=O)O

Experiments:
Mus musculus [1] = assay: Hypoglycemic activity in db/db mouse assessed as decrease in glucose excursion at 25 nmol/kg, ip dosed 30 mins before test and measured up to 120 mins by OGTT method; format: functional, organism-based; conditions: time 150.0 min
[2] = target: Glucagon-like peptide 1 receptor (Homo sapiens, UniProt P43220); assay: Agonist activity at human GLP-1R expressed in HEK293 cells assessed as stimulation of cAMP accumulation incubated for 20 mins; format: functional, cell-based
Glucagon-like peptide 1 receptor, sequence (P43220 whole entry): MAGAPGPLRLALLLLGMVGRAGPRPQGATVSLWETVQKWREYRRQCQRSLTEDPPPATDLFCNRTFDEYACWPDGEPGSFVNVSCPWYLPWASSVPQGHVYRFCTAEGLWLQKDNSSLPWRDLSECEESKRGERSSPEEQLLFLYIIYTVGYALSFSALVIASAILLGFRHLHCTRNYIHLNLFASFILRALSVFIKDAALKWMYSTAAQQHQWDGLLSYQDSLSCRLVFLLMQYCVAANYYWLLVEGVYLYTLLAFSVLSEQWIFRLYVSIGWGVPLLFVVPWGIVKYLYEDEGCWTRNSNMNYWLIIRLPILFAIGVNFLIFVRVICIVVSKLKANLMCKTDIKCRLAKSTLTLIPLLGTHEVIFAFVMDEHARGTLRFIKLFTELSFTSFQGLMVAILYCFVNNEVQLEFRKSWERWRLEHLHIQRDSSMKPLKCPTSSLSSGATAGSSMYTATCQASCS

[3] = target: T1, Cholecystokinin receptor type A (Homo sapiens, UniProt P32238); assay: Agonist activity at human CCK-1R expressed in HEK293 cells assessed as stimulation of ERK phosphorylation incubated for 5 mins; format: cell-based
T1 sequence (P32238 whole entry): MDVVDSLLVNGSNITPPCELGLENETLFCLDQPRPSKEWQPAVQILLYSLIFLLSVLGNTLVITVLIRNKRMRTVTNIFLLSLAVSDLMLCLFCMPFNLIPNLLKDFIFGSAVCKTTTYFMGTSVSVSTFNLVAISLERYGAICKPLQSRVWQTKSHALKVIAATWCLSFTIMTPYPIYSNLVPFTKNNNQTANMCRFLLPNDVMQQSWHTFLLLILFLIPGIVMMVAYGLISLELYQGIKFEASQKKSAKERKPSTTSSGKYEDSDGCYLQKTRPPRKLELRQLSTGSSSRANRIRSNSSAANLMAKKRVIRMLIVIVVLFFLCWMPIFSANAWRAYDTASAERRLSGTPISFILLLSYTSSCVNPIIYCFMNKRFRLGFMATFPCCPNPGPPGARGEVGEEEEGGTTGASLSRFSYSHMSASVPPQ

[4] = target: T2, Gastrin/cholecystokinin type B receptor (Homo sapiens, UniProt P32239); assay: Agonist activity at human CCK-2R expressed in HEK293 cells assessed as stimulation of ERK phosphorylation incubated for 5 mins; format: cell-based
T2 sequence (P32239 whole entry): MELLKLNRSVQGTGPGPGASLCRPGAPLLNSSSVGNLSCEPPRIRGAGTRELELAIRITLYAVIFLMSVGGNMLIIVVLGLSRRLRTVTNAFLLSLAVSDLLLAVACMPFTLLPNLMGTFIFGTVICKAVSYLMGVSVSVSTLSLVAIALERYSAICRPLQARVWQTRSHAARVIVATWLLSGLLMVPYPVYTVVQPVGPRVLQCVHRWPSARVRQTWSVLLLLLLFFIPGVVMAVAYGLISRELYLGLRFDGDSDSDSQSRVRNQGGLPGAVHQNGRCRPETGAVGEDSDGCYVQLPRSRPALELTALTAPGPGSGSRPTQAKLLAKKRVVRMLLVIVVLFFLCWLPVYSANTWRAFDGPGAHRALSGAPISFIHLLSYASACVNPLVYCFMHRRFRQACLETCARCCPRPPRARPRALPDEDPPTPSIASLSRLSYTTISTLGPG

Mus musculus [5] = assay: Hypoglycemic activity in db/db mouse assessed as improvement in glucose tolerance at 25 nmol/kg, ip dosed 30 mins before test and measured up to 120 mins by OGTT method; format: functional, organism-based; conditions: time 150.0 min
Mus musculus [6] = assay: Insulinotropic activity in db/db mouse assessed as improvement in plasma insulin level at 25 nmol/kg, ip dosed 30 mins before test and measured up to 60 mins by OGTT method; format: functional, organism-based; conditions: time 90.0 min
[7] = Half life in ICR mouse at 50 nmol/kg, sc up to 24 hrs by LC-MS/MS analysis; format: ADME, organism-based; conditions: in vivo
[8] = Tmax in ICR mouse at 50 nmol/kg, sc up to 24 hrs by LC-MS/MS analysis; format: ADME, organism-based; conditions: in vivo
[9] = AUC (0 to infinity) in ICR mouse at 50 nmol/kg, sc up to 24 hrs by LC-MS/MS analysis; format: ADME, organism-based; set-up: route subcutaneous, dose 50 nmol/kg, time <=24; conditions: in vivo
Mus musculus [10] = assay: Hypoglycemic activity in non-fasted db/db mouse assessed as improvement in glucose tolerance at dosed intraperitoneally 30 mins before test and measured up to 120 mins by OGTT method; format: functional, organism-based; conditions: time 150.0 min
Mus musculus [11] = assay: […] activity in non-fasted db/db mouse assessed as improvement in glucose tolerance at dosed intraperitoneally 30 mins before test and measured up to 120 mins by OGTT method; format: functional, organism-based; conditions: time 150.0 min
Mus musculus [12] = assay: Inhibition of liquid-phase gastric emptying in 6 hrs fasted ICR mouse assessed as reduction in blood acetaminophen concentration at 25 nmol/kg, ip dosed 30 mins before acetaminophen dosing by LC-MS/MS analysis; format: functional, organism-based
Mus musculus [13] = assay: Inhibition of solid-phase gastric emptying in fasted ICR mouse at 25 nmol/kg, ip measured after 4 hrs by LC-MS/MS analysis; format: functional, organism-based
[14] = Toxicity in Sprague-Dawley rat assessed as induction of kaolin intake at 25 nmol/kg, ip after 24 hrs by Kaolin consumption test; format: organism-based; conditions: in vivo
Rattus norvegicus [15] = assay: Reduction of food intake in Sprague-Dawley rat at 25 nmol/kg, ip after 24 hrs; format: functional, organism-based
[16] = Toxicity in Sprague-Dawley rat assessed as induction of kaolin intake at 25 nmol/kg, sc BID for 10 days by Kaolin consumption test; format: organism-based; conditions: in vivo, 240 h, time 10 day
Rattus norvegicus [17] = assay: Reduction of food intake in Sprague-Dawley rat at 25 nmol/kg, sc BID for 12 days; format: functional, organism-based; conditions: time 12.0 day
INS1 [18] = assay: Toxicity in rat INS1 cells assessed as reduction cell viability up to 1000 nM after 24 hrs by MTT assay; format: cell-based; conditions: ins1, 24 h
INS1 [19] = assay: Protection against glucotoxicity in rat INS1 cells assessed as recovery of cell viability after 24 hrs in presence of glucotoxicity media by MTT assay; format: functional, cell-based
[20] = Hepatotoxicity in ICR mouse assessed as effect on aspartate aminotransferase level at 1000 nmol/kg, sc BID for 14 days; format: toxicity, organism-based; conditions: in vivo, 336 h, time 14 day
[21] = Hepatotoxicity in ICR mouse assessed as effect on alanine aminotransferase level at 1000 nmol/kg, sc BID for 14 days; format: toxicity, organism-based; conditions: in vivo, 336 h, time 14 day
[22] = Renal toxicity in ICR mouse assessed as effect on serum creatinine level at 1000 nmol/kg, sc BID for 14 days; format: organism-based; conditions: in vivo, 336 h, time 14 day
[23] = Renal toxicity in ICR mouse assessed as effect on blood urea nitrogen level at 1000 nmol/kg, sc BID for 14 days; format: organism-based; conditions: in vivo, 336 h, time 14 day
Mus musculus [24] = assay: Reduction in body weight in C57BL/6 mouse model of high-fat diet induced obesity at 25 nmol/kg, sc BID for 21 days relative to control; format: functional; set-up: scale not given: the % may be the effect or the level left; conditions: time 21 day
Mus musculus [25] = assay: Reduction in body fat content in C57BL/6 mouse model of high-fat diet induced obesity at 25 nmol/kg, sc BID for 21 days relative to control; format: functional; set-up: scale not given: the % may be the effect or the level left; conditions: time 21 day
Mus musculus [26] = assay: Reduction in fasting blood glucose in C57BL/6 mouse model of high-fat diet induced obesity at 25 nmol/kg, sc BID for 21 days relative to control; format: functional, organism-based; conditions: time 21.0 day
Mus musculus [27] = assay: Improvement in glucose tolerance in C57BL/6 mouse model of high-fat diet induced obesity at 25 nmol/kg, sc BID for 21 days relative to control; format: functional, organism-based; conditions: time 21.0 day
Mus musculus [28] = assay: Reduction in serum cholesterol in C57BL/6 mouse model of high-fat diet induced obesity at 25 nmol/kg, sc BID for 21 days relative to control; format: functional, organism-based; conditions: time 21.0 day
Mus musculus [29] = assay: Reduction in serum triglyceride in C57BL/6 mouse model of high-fat diet induced obesity at 25 nmol/kg, sc BID for 21 days relative to control; format: functional, organism-based; conditions: time 21.0 day
Mus musculus [30] = assay: Reduction in cumulated food intake in db/db mouse at 25 nmol/kg, sc BID for 21 days relative to control; format: functional, organism-based; conditions: time 21.0 day
Mus musculus [31] = assay: Reduction in body weight gain in db/db mouse at 25 nmol/kg, sc BID for 21 days relative to control; format: functional, organism-based; conditions: time 21.0 day
Mus musculus [32] = assay: Improvement in fasted blood glucose level in db/db mouse at 25 nmol/kg, sc BID for 21 days relative to control; format: functional, organism-based; conditions: time 21.0 day
Mus musculus [33] = assay: Improvement in HbA1c level in db/db mouse at 25 nmol/kg, sc BID for 21 days relative to control; format: functional, organism-based; conditions: time 21.0 day
Mus musculus [34] = assay: Improvement in pancreatic beta cell area level in db/db mouse at 25 nmol/kg, sc BID for 21 days relative to control; format: functional, organism-based; conditions: time 21.0 day
Mus musculus [35] = assay: Inhibition of pancreatic non-beta cell area (alpha-cell) level in db/db mouse at 25 nmol/kg, sc BID for 21 days relative to control; format: functional, organism-based; conditions: time 21.0 day
Mus musculus [36] = assay: Improvement in pancreatic islet area and number level in db/db mouse at 25 nmol/kg, sc BID for 21 days relative to control; format: functional, organism-based; conditions: time 21.0 day
Mus musculus [37] = assay: Improvement in insulin content in db/db mouse at 25 nmol/kg, sc BID for 21 days relative to control; format: functional, organism-based; conditions: time 21.0 day
Mus musculus [38] = assay: Improvement in glucose tolerance in db/db mouse at 25 nmol/kg, sc BID for 6 weeks followed by another 6 week saline treatment relative to control; format: functional, organism-based
Mus musculus [39] = assay: Improvement in fasted blood glucose level in db/db mouse at 25 nmol/kg, sc BID for 6 weeks followed by another 6 week saline treatment relative to control; format: functional, organism-based
Mus musculus [40] = assay: Reduction in Hb1Ac level in db/db mouse at 25 nmol/kg, sc BID for 6 weeks followed by another 6 week saline treatment relative to control; format: functional, organism-based

H-H[Aib]EGTYTNDVTEYCEEEAAKCFIEWLIKGKPSSGAPPPS[AEEA][AEEA]YGWLDF-NH2 (linker 14-21 via X1)
Activity (Mus musculus [1]): Active
pEC50 [2]: 10.66
pEC50 [3]: < 6.00
pEC50 [4]: 8.14
Activity (Mus musculus [5]): Active
Activity (Mus musculus [6]): Active
half-life [7]: 4.4 h
Tmax [8]: 4 h
AUC(0-inf) [9]: 15900 ng·h/mL
Activity (Mus musculus [10]): Dose-dependent effect
Activity (Mus musculus [11]): Dose-dependent effect
inhibition (Mus musculus [12]): Active
inhibition (Mus musculus [13]): Active
Activity [14]: Non-Toxic
Activity (Rattus norvegicus [15]): Active
Activity [16]: Non-Toxic
Activity (Rattus norvegicus [17]): Active
Activity (INS1 [18]): Non-Toxic
Activity (INS1 [19]): Dose-dependent effect
Activity [20]: Non-Toxic
Activity [21]: Non-Toxic
Activity [22]: Non-Toxic
Activity [23]: Non-Toxic
Activity (Mus musculus [24]): 26.3%
Activity (Mus musculus [25]): 32.2%
Activity (Mus musculus [26]): Active
Activity (Mus musculus [27]): Active
Activity (Mus musculus [28]): Active
Activity (Mus musculus [29]): Active
Activity (Mus musculus [30]): Active
Activity (Mus musculus [31]): Active
Activity (Mus musculus [32]): Active
Activity (Mus musculus [33]): Active
Activity (Mus musculus [34]): Active
inhibition (Mus musculus [35]): Active
Activity (Mus musculus [36]): Active
Activity (Mus musculus [37]): Active
Activity (Mus musculus [38]): Active
Activity (Mus musculus [39]): Active
Activity (Mus musculus [40]): Active

H-H[Aib]EGTYTNDVTEYLEEEAAKCFIEWLICGKPSSGAPPPS[AEEA][AEEA]YGWLDF-NH2 (linker 21-28 via X1)
Activity (Mus musculus [1]): Active
pEC50 [2]: 10.39
pEC50 [3]: < 6.00
pEC50 [4]: 8.06
Activity (Mus musculus [5]): Active
Activity (Mus musculus [6]): Active
half-life [7]: 4.7 h
Tmax [8]: 4 h
AUC(0-inf) [9]: 19600 ng·h/mL
Activity (Mus musculus [10]): Dose-dependent effect
Activity (Mus musculus [11]): Dose-dependent effect
inhibition (Mus musculus [12]): Active
inhibition (Mus musculus [13]): Active
Activity [14]: Non-Toxic
Activity (Rattus norvegicus [15]): Active
Activity [16]: Non-Toxic
Activity (Rattus norvegicus [17]): Active
Activity (INS1 [18]): Non-Toxic
Activity (INS1 [19]): Dose-dependent effect
Activity [20]: Non-Toxic
Activity [21]: Non-Toxic
Activity [22]: Non-Toxic
Activity [23]: Non-Toxic
Activity (Mus musculus [24]): 24%
Activity (Mus musculus [25]): 30.4%
Activity (Mus musculus [26]): Active
Activity (Mus musculus [27]): Active
Activity (Mus musculus [28]): Active
Activity (Mus musculus [29]): Active
Activity (Mus musculus [30]): Active
Activity (Mus musculus [31]): Active
Activity (Mus musculus [32]): Active
Activity (Mus musculus [33]): Active
Activity (Mus musculus [34]): Active
inhibition (Mus musculus [35]): Active
Activity (Mus musculus [36]): Active
Activity (Mus musculus [37]): Active
Activity (Mus musculus [38]): Active
Activity (Mus musculus [39]): Active
Activity (Mus musculus [40]): Active
